Measurements: the NIST ThermoML archive (doi:10.1016/j.tca.2011.08.002)
± gives the expanded uncertainty stated by the source.

How the values were obtained:
[1] = xn = mol fraction of the nth substance listed; details: 101 kPa, Liquid, Vibrating tube method
[2] = refractive index (Na D-line) (dimensionless); xn = mol fraction of the nth substance listed; details: 101 kPa, Liquid, Standard Abbe refractometry

C1CCC(NC2CCCCC2)CC1 [N-cyclohexylcyclohexanamine] + CCC(C)O
Details	mass density, [1] [kg/m3]	refractive index, [2]
288.15 K, x2 = 0	915.498 ± 0.23	1.48636 ± 0.0004
288.15 K, x2 = 0.0996	912.349 ± 0.23	1.48336 ± 0.0004
288.15 K, x2 = 0.1998	908.349 ± 0.23	1.47951 ± 0.0004
288.15 K, x2 = 0.3	903.446 ± 0.23	1.47497 ± 0.0004
288.15 K, x2 = 0.3998	897.469 ± 0.23	1.46961 ± 0.0004
288.15 K, x2 = 0.5011	889.89 ± 0.23	1.4629 ± 0.0004
288.15 K, x2 = 0.599	880.802 ± 0.23	1.45516 ± 0.0004
288.15 K, x2 = 0.6999	869.241 ± 0.24	1.44554 ± 0.0004
288.15 K, x2 = 0.7998	854.484 ± 0.24	1.43365 ± 0.0004
288.15 K, x2 = 0.8996	835.606 ± 0.24	1.41884 ± 0.0004
288.15 K, x2 = 0.9494	823.99 ± 0.24	1.41002 ± 0.0004
293.15 K, x2 = 0	911.705 ± 0.23	1.48416 ± 0.0004
293.15 K, x2 = 0.0996	908.493 ± 0.23	1.48112 ± 0.0004
293.15 K, x2 = 0.1998	904.427 ± 0.23	1.47724 ± 0.0004
293.15 K, x2 = 0.3	899.455 ± 0.23	1.47268 ± 0.0004
293.15 K, x2 = 0.3998	893.416 ± 0.24	1.46731 ± 0.0004
293.15 K, x2 = 0.5011	885.775 ± 0.24	1.46057 ± 0.0004
293.15 K, x2 = 0.599	876.639 ± 0.24	1.45283 ± 0.0004
293.15 K, x2 = 0.6999	865.057 ± 0.24	1.44322 ± 0.0004
293.15 K, x2 = 0.7998	850.31 ± 0.24	1.43136 ± 0.0004
293.15 K, x2 = 0.8996	831.493 ± 0.24	1.41658 ± 0.0004
293.15 K, x2 = 0.9494	819.925 ± 0.24	1.40783 ± 0.0004
298.15 K, x2 = 0	907.923 ± 0.23	1.48198 ± 0.0004
298.15 K, x2 = 0.0996	904.633 ± 0.23	1.47892 ± 0.0004
298.15 K, x2 = 0.1998	900.497 ± 0.23	1.47499 ± 0.0004
298.15 K, x2 = 0.3	895.457 ± 0.24	1.47041 ± 0.0004
298.15 K, x2 = 0.3998	889.353 ± 0.24	1.465 ± 0.0004
298.15 K, x2 = 0.5011	881.646 ± 0.24	1.45825 ± 0.0004
298.15 K, x2 = 0.599	872.452 ± 0.24	1.4505 ± 0.0004
298.15 K, x2 = 0.6999	860.838 ± 0.24	1.44088 ± 0.0004
298.15 K, x2 = 0.7998	846.088 ± 0.24	1.42906 ± 0.0004
298.15 K, x2 = 0.8996	827.317 ± 0.24	1.41432 ± 0.0004
298.15 K, x2 = 0.9494	815.784 ± 0.24	1.40558 ± 0.0004
303.15 K, x2 = 0	904.144 ± 0.23	1.47978 ± 0.0004
303.15 K, x2 = 0.0996	900.775 ± 0.23	1.47667 ± 0.0004
303.15 K, x2 = 0.1998	896.561 ± 0.23	1.47273 ± 0.0004
303.15 K, x2 = 0.3	891.448 ± 0.24	1.46813 ± 0.0004
303.15 K, x2 = 0.3998	885.272 ± 0.24	1.4627 ± 0.0004
303.15 K, x2 = 0.5011	877.495 ± 0.24	1.45591 ± 0.0004
303.15 K, x2 = 0.599	868.239 ± 0.24	1.44817 ± 0.0004
303.15 K, x2 = 0.6999	856.586 ± 0.24	1.43852 ± 0.0004
303.15 K, x2 = 0.7998	841.819 ± 0.24	1.42671 ± 0.0004
303.15 K, x2 = 0.8996	823.072 ± 0.24	1.412 ± 0.0004
303.15 K, x2 = 0.9494	811.566 ± 0.24	1.40329 ± 0.0004
308.15 K, x2 = 0	900.372 ± 0.23	1.47761 ± 0.0004
308.15 K, x2 = 0.0996	896.914 ± 0.23	1.47445 ± 0.0004
308.15 K, x2 = 0.1998	892.619 ± 0.23	1.47046 ± 0.0004
308.15 K, x2 = 0.3	887.426 ± 0.24	1.4658 ± 0.0004
308.15 K, x2 = 0.3998	881.174 ± 0.24	1.46034 ± 0.0004
308.15 K, x2 = 0.5011	873.319 ± 0.24	1.45358 ± 0.0004
308.15 K, x2 = 0.599	863.994 ± 0.24	1.44577 ± 0.0004
308.15 K, x2 = 0.6999	852.289 ± 0.24	1.43617 ± 0.0004
308.15 K, x2 = 0.7998	837.495 ± 0.24	1.42437 ± 0.0004
308.15 K, x2 = 0.8996	818.755 ± 0.24	1.40968 ± 0.0004
308.15 K, x2 = 0.9494	807.262 ± 0.25	1.40094 ± 0.0004
313.15 K, x2 = 0	896.608 ± 0.23	1.47562 ± 0.0004
313.15 K, x2 = 0.0996	893.053 ± 0.23	1.4722 ± 0.0004
313.15 K, x2 = 0.1998	888.669 ± 0.24	1.46818 ± 0.0004
313.15 K, x2 = 0.3	883.39 ± 0.24	1.46347 ± 0.0004
313.15 K, x2 = 0.3998	877.057 ± 0.24	1.45797 ± 0.0004
313.15 K, x2 = 0.5011	869.116 ± 0.24	1.45115 ± 0.0004
313.15 K, x2 = 0.599	859.715 ± 0.24	1.44326 ± 0.0004
313.15 K, x2 = 0.6999	847.947 ± 0.24	1.43367 ± 0.0004
313.15 K, x2 = 0.7998	833.106 ± 0.24	1.42179 ± 0.0004
313.15 K, x2 = 0.8996	814.354 ± 0.24	1.40723 ± 0.0004
313.15 K, x2 = 0.9494	802.87 ± 0.25	1.39851 ± 0.0004
318.15 K, x2 = 0	892.847 ± 0.23	1.47347 ± 0.0004
318.15 K, x2 = 0.0996	889.189 ± 0.23	1.46999 ± 0.0004
318.15 K, x2 = 0.1998	884.706 ± 0.24	1.46593 ± 0.0004
318.15 K, x2 = 0.3	879.336 ± 0.24	1.46119 ± 0.0004
318.15 K, x2 = 0.3998	872.915 ± 0.24	1.45564 ± 0.0004
318.15 K, x2 = 0.5011	864.882 ± 0.24	1.44879 ± 0.0004
318.15 K, x2 = 0.599	855.394 ± 0.24	1.44089 ± 0.0004
318.15 K, x2 = 0.6999	843.552 ± 0.24	1.43125 ± 0.0004
318.15 K, x2 = 0.7998	828.652 ± 0.24	1.41937 ± 0.0004
318.15 K, x2 = 0.8996	809.861 ± 0.24	1.40479 ± 0.0004
318.15 K, x2 = 0.9494	798.377 ± 0.25	1.39613 ± 0.0004
323.15 K, x2 = 0	889.089 ± 0.23	1.47134 ± 0.0004
323.15 K, x2 = 0.0996	885.321 ± 0.24	1.46783 ± 0.0004
323.15 K, x2 = 0.1998	880.732 ± 0.24	1.46374 ± 0.0004
323.15 K, x2 = 0.3	875.264 ± 0.24	1.45889 ± 0.0004
323.15 K, x2 = 0.3998	868.746 ± 0.24	1.45336 ± 0.0004
323.15 K, x2 = 0.5011	860.611 ± 0.24	1.44656 ± 0.0004
323.15 K, x2 = 0.599	851.029 ± 0.24	1.43856 ± 0.0004
323.15 K, x2 = 0.6999	839.101 ± 0.24	1.42888 ± 0.0004
323.15 K, x2 = 0.7998	824.126 ± 0.25	1.41694 ± 0.0004
323.15 K, x2 = 0.8996	805.292 ± 0.25	1.40233 ± 0.0004
323.15 K, x2 = 0.9494	793.784 ± 0.25	1.39357 ± 0.0004
